Source: patent US7025958B2, “Use of amidoamines to treat or prevent acanthamoeba and fungal infections” (Alcon, Inc., priority 2000, dated 2006)

Legend:
Assay type in all cases: cell-based
[1] = system: Acanthamoeba polyphaga cysts (ATCC 30871); assay: Dose/response of survivors, Acanthamoeba polyphaga cysts in Mueller Hinton Broth
Method: (§1) A 0.1% stock solution of Compound No. 4 was prepared. The compound was dissolved in TRIS buffer^1 by gently heating and swirling. The final pH was adjusted to 7.8 with 1N HCl. […] To prepare the samples, a 0.1% stock solution of Compound No. 4 was serially diluted in Mueller Hinton Broth (MHB)^2,3 (BBL) to provide concentrations of 0.01 w/v %, 0.001 w/v %, 0.0001 w/v %, and 0.00001 w/v %, respectively. Solutions containing 0.02 w/v % polyhexamethylene biguanide (PHMP) and 0.1 w/v % chlorhexidine, respectively, were also utilized as controls.
The samples were inoculated with low levels (approximately 3.0×10^2 organisms/mL) of the test organism. The test organism was Acanthamoeba polyphaga cysts (ATCC 30871) produced 14 days in. PYG and then 14 days in Page's saline, followed by one month of refrigeration. The samples were checked for survivors at 4, 24, and 48 hours post inoculation. The samples were serially diluted in Dey-Engley neutralizing broth (DE) (Difco) and plated in quadruplicate in tissue culture plate wells containing non-nutrient agar overlaid with E. coli. Plates were sealed and incubated for 14 days at 30-35° C. Results were recorded and counts calculated using the Reed and Muench computation.

C. albicans ATCC 10231 = assay: Dose/response of survivors against fungi, C. albicans
Method: as §1, with “provide solutions containing Compound No. 4 in” for “provide”, “PHMB” for “polyhexamethylene biguanide (PHMP)”, “were” for “were also”
(§2) The samples were inoculated with low levels (approximately 1.0×10^3 organisms/mL) of the test organism. The test organisms included the fungi C. albicans ATCC 10231 and F. solani ATCC 36031. The samples were checked for survivors at 4, 24, and 48 hours post inoculation. The samples were serially diluted in Dey Engley neutralizing broth (DE) (Difco) and plated in duplicate using trypicase soy agar containing 0.07% asolectin and 0.5% Tween 80. The plates were incubated for 5 days at 20-25° C. and plate counts recorded.

F. solani ATCC 36031 = assay: Dose/response of survivors against fungi, F. solani
Method: as §1, with “provide solutions containing Compound No. 4 in” for “provide”, “PHMB” for “polyhexamethylene biguanide (PHMP)”, “were” for “were also”
as §2

[2] = system: Acanthamoeba Strain 1501-3D (NNA cysts); assay: Minimum cysticidal concentration, strain 1501-3D; conditions: 24 hours exposure at 32° C.
Method: (§3) Two different vehicles were utilized to prepare solutions containing Compound No. 4. The first vehicle was the same as the vehicle described in Formulation No. 4 (see Example 2, above), and the second vehicle was a 2 mM TRIS. HCl solution (pH 7.8).
(§4) Minimum cysticidal levels of Compound No. 4 for Acanthamoeba keratitis strains was determined as follows. Briefly, 100 μl serial, two-fold dilutions were prepared across the rows of a microtitre plate. Control wells received only diluent. An equal volume of five strains of Acanthamoba cysts were added to the wells and the plates sealed and incubated at 32° C. for 24 hours. Using a multi-channel pipette, the solutions in the wells were removed and replaced with 200 μl of ¼ strength Lactated Ringer's solution and left at room temperature for 15 minutes. The washing procedure was repeated twice more before finally filling the wells with 100 μl of ¼ strength Lactated Ringer's solution containing live E. coli at an O.D.540 of 0.2. The plates were then sealed and incubated at 32° C. for up to 7 days.
(§5) The MCC values for Compound No. 4 and chlorhexidine against the five Acanthamoeba strains (NNA cysts) tested are set forth in Table 4, below.

[3] = system: Acanthamoeba Strain Uni Tap Water 1501-3D (NNA cysts); assay: Minimum cysticidal concentration, strain Uni Tap Water 1501-3D; conditions: 24 hours exposure at 32° C.
Method: as §3, §4, §5

[4] = system: Acanthamoeba Strain 1501-2g (NNA cysts); assay: Minimum cysticidal concentration, strain 1501-2g; conditions: 24 hours exposure at 32° C.
Method: as §3, §4, §5

[5] = system: Acanthamoeba Strain Ros (NNA cysts); assay: Minimum cysticidal concentration, strain Ros; conditions: 24 hours exposure at 32° C.
Method: as §3, §4, §5

[6] = system: Acanthamoeba Strain Watson (NNA cysts); assay: Minimum cysticidal concentration, strain Watson; conditions: 24 hours exposure at 32° C.
Method: as §3, §4, §5

[7] = 0.00001% Compound No. 4, 0 hours
[8] = 0.00001% Compound No. 4, 4 hours
[9] = 0.00001% Compound No. 4, 24 hours
[10] = 0.00001% Compound No. 4, 48 hours
[11] = 0.0001% Compound No. 4, 0 hours
[12] = 0.0001% Compound No. 4, 4 hours
[13] = 0.0001% Compound No. 4, 24 hours
[14] = 0.0001% Compound No. 4, 48 hours
[15] = 0.001% Compound No. 4, 24 hours
[16] = 0.001% Compound No. 4, 48 hours

## polyhexamethylene biguanide [PHMB, reference compound]
[1]; 0.02% PHMB, 0 hrs
  Number of Surviving Organisms: 3.2 × 10^2
[1]; 0.02% PHMB, 4 hrs
  Number of Surviving Organisms: <10
[1]; 0.02% PHMB, 24 hrs
  Number of Surviving Organisms: <10
[1]; 0.02% PHMB, 48 hrs
  Number of Surviving Organisms: <10
C. albicans ATCC 10231; 0.02% PHMB, 0 hours
  Number of Surviving Organisms: 3.3 × 10^3
C. albicans ATCC 10231; 0.02% PHMB, 4 hours
  Number of Surviving Organisms: <1
C. albicans ATCC 10231; 0.02% PHMB, 24 hours
  Number of Surviving Organisms: <1
C. albicans ATCC 10231; 0.02% PHMB, 48 hours
  Number of Surviving Organisms: <1
F. solani ATCC 36031; 0.02% PHMB, 0 hours
  Number of Surviving Organisms: 4.9 × 10^3
F. solani ATCC 36031; 0.02% PHMB, 4 hours
  Number of Surviving Organisms: <1
F. solani ATCC 36031; 0.02% PHMB, 24 hours
  Number of Surviving Organisms: <1
F. solani ATCC 36031; 0.02% PHMB, 48 hours
  Number of Surviving Organisms: <1

## CCCCCCCCCCCCCC(=O)NCCCN(C)C [Compound No. 4, N,N-Dimethyl-N′-tetradecanoyl-1,3-propylenediamine]
[1]; 0.00001% Compound No. 4, 0 hrs
  Number of Surviving Organisms: 3.2 × 10^2
[1]; 0.00001% Compound No. 4, 4 hrs
  Number of Surviving Organisms: 3.2 × 10^3
[1]; 0.00001% Compound No. 4, 24 hrs
  Number of Surviving Organisms: 3.2 × 10^3
[1]; 0.00001% Compound No. 4, 48 hrs
  Number of Surviving Organisms: 3.2 × 10^3
[1]; 0.0001% Compound No. 4, 0 hrs
  Number of Surviving Organisms: 3.2 × 10^2
[1]; 0.0001% Compound No. 4, 4 hrs
  Number of Surviving Organisms: 3.2 × 10^3
[1]; 0.0001% Compound No. 4, 24 hrs
  Number of Surviving Organisms: 2.1 × 10^3
[1]; 0.0001% Compound No. 4, 48 hrs
  Number of Surviving Organisms: 2.1 × 10^3
[1]; 0.001% Compound No. 4, 0 hrs
  Number of Surviving Organisms: 3.2 × 10^2
[1]; 0.001% Compound No. 4, 4 hrs
  Number of Surviving Organisms: 3.2 × 10^2
[1]; 0.001% Compound No. 4, 24 hrs
  Number of Surviving Organisms: 1.7 × 10^1
[1]; 0.001% Compound No. 4, 48 hrs
  Number of Surviving Organisms: <10
[1]; 0.01% Compound No. 4, 0 hrs
  Number of Surviving Organisms: 3.2 × 10^2
[1]; 0.01% Compound No. 4, 4 hrs
  Number of Surviving Organisms: <10
[1]; 0.01% Compound No. 4, 24 hrs
  Number of Surviving Organisms: <10
[1]; 0.01% Compound No. 4, 48 hrs
  Number of Surviving Organisms: <10
C. albicans ATCC 10231; [7]
  Number of Surviving Organisms: 3.3 × 10^3
C. albicans ATCC 10231; [8]
  Number of Surviving Organisms: 3.2 × 10^3
C. albicans ATCC 10231; [9]
  Number of Surviving Organisms: 2.5 × 10^4
C. albicans ATCC 10231; [10]
  Number of Surviving Organisms: 1.3 × 10^5
C. albicans ATCC 10231; [11]
  Number of Surviving Organisms: 3.3 × 10^3
C. albicans ATCC 10231; [12]
  Number of Surviving Organisms: 3.2 × 10^3
C. albicans ATCC 10231; [13]
  Number of Surviving Organisms: 1.5 × 10^4
C. albicans ATCC 10231; [14]
  Number of Surviving Organisms: 1.3 × 10^5
C. albicans ATCC 10231; 0.001% Compound No. 4, 0 hours
  Number of Surviving Organisms: 3.3 × 10^3
C. albicans ATCC 10231; 0.001% Compound No. 4, 4 hours
  Number of Surviving Organisms: 4.3 × 10^1
C. albicans ATCC 10231; [15]
  Number of Surviving Organisms: 1.0 × 10^1
C. albicans ATCC 10231; [16]
  Number of Surviving Organisms: 3.4 × 10^1
C. albicans ATCC 10231; 0.01% Compound No. 4, 0 hours
  Number of Surviving Organisms: 3.3 × 10^3
C. albicans ATCC 10231; 0.01% Compound No. 4, 4 hours
  Number of Surviving Organisms: <1
C. albicans ATCC 10231; 0.01% Compound No. 4, 24 hours
  Number of Surviving Organisms: <1
C. albicans ATCC 10231; 0.01% Compound No. 4, 48 hours
  Number of Surviving Organisms: <1
F. solani ATCC 36031; [7]
  Number of Surviving Organisms: 4.9 × 10^3
F. solani ATCC 36031; [8]
  Number of Surviving Organisms: 5.9 × 10^3
F. solani ATCC 36031; [9]
  Number of Surviving Organisms: 1.0 × 10^4
F. solani ATCC 36031; [10]
  Number of Surviving Organisms: 4.8 × 10^3
F. solani ATCC 36031; [11]
  Number of Surviving Organisms: 4.9 × 10^3
F. solani ATCC 36031; [12]
  Number of Surviving Organisms: 6.9 × 10^3
F. solani ATCC 36031; [13]
  Number of Surviving Organisms: 9.5 × 10^3
F. solani ATCC 36031; [14]
  Number of Surviving Organisms: 1.6 × 10^4
F. solani ATCC 36031; 0.001% Compound No. 4, 0 hours
  Number of Surviving Organisms: 4.9 × 10^3
F. solani ATCC 36031; 0.001% Compound No. 4, 4 hours
  Number of Surviving Organisms: 1.0 × 10^1
F. solani ATCC 36031; [15]
  Number of Surviving Organisms: <1
F. solani ATCC 36031; [16]
  Number of Surviving Organisms: <1
F. solani ATCC 36031; 0.01% Compound No. 4, 0 hours
  Number of Surviving Organisms: 4.9 × 10^3
F. solani ATCC 36031; 0.01% Compound No. 4, 4 hours
  Number of Surviving Organisms: <1
F. solani ATCC 36031; 0.01% Compound No. 4, 24 hours
  Number of Surviving Organisms: <1
F. solani ATCC 36031; 0.01% Compound No. 4, 48 hours
  Number of Surviving Organisms: <1

## [H]/N=C(\N/C(=N/[H])NCCCCCCNC(=N)NC(=N)Nc1ccc(Cl)cc1)Nc1ccc(Cl)cc1 [Chlorhexidine, chlorhexidine, reference compound]
[1]; 0.1% Chlorhexidine, 0 hrs
  Number of Surviving Organisms: 3.2 × 10^2
[1]; 0.1% Chlorhexidine, 4 hrs
  Number of Surviving Organisms: <10
[1]; 0.1% Chlorhexidine, 24 hrs
  Number of Surviving Organisms: <10
[1]; 0.1% Chlorhexidine, 48 hrs
  Number of Surviving Organisms: <10
C. albicans ATCC 10231; 0.1% Chlorhexidine, 0 hours
  Number of Surviving Organisms: 3.3 × 10^3
C. albicans ATCC 10231; 0.1% Chlorhexidine, 4 hours
  Number of Surviving Organisms: <1
C. albicans ATCC 10231; 0.1% Chlorhexidine, 24 hours
  Number of Surviving Organisms: <1
C. albicans ATCC 10231; 0.1% Chlorhexidine, 48 hours
  Number of Surviving Organisms: <1
F. solani ATCC 36031; 0.1% Chlorhexidine, 0 hours
  Number of Surviving Organisms: 4.9 × 10^3
F. solani ATCC 36031; 0.1% Chlorhexidine, 4 hours
  Number of Surviving Organisms: <1
F. solani ATCC 36031; 0.1% Chlorhexidine, 24 hours
  Number of Surviving Organisms: <1
F. solani ATCC 36031; 0.1% Chlorhexidine, 48 hours
  Number of Surviving Organisms: <1
[2]
  Minimum Cysticidal Concentration: 31.3 micrograms/milliliter
[3]
  Minimum Cysticidal Concentration: 26.0 micrograms/milliliter
[4]
  Minimum Cysticidal Concentration: 52.1 micrograms/milliliter
[5]
  Minimum Cysticidal Concentration: 31.25 micrograms/milliliter
[6]
  Minimum Cysticidal Concentration: 62.5 micrograms/milliliter
